Measured values reported in patent US8173668B1 (Alcon Research, Ltd., priority 2007, dated 2012).

Assays:
[1] = system: anterior eye segments of pig eyes; assay: Outflow facility in perfused anterior eye segments; settings: 1 μM, perfused porcine anterior eye segments, n=5; FIG. 8
Description: Anterior eye segments obtained from postmortem porcine eyes were used to study the effects of non-peptide agonists on fluid outflow through the trabecular meshwork and Schlemms' canal (Erickson-Lamey et al., Curr. Eye Res. 7: 799-807, 1988; Vaajanen et al. J. Ocular Pharmacol. Ther. 23: 124-131, 2007). The postmortem eyes were placed in DMEM containing 50 U/ml penicillin, 50 μg/mL streptomycin, and 5 μg/mL amphotericin B prior to dissection under sterile conditions. Eyes were bisected at the to equator and the anterior chamber transferred to a petri dish. The lens was removed and the remaining choroid, iris, and ciliary body gently teased away. […] Perfusion pressure for standard perfusion was maintained at a constant level of 10 mmHg, and rate of fluid outflow monitored continuously (i.e. by means of a Model ACCU 124 analytical balance; Fisher Scientific, Pittsburgh, Pa.) throughout the experiment. The rate of fluid flow was recorded by a computer utilizing Collect XL software (Lab Tronics, Inc; Guelph, Ontario, Canada). Outflow facility was calculated as the ratio of flow rate to perfusion pressure (μL/min/mmHg).
Preparations were allowed to stabilize overnight (14-16 hr), and baseline facilities were then recorded for 40-60 min. […]

[2] = system: h-CM cells; assay: MMP activity in h-CM cells after 24 hour exposure; assay type: cell-based, human; settings: 1 μM
Description: As with FP-class prostanoids, the IOP-lowering effects of BK may involve the stimulation of production of various MMPs that in turn digest the extracellular matrix (ECM) to promote outflow and thus lower IOP (Mietz et al., Invest. Ophthalmol. Vis. Sci. 44: 5182-5188, 2003; Webb et al., J. Ocular Pharmacol. Ther. 22: 310-316, 2006). Cells isolated from human or animal ocular or non-ocular tissues, or cells expressing recombinant (preferably human) BK receptors are seeded in 48-wells culture plates and allowed to reach confluence. […] BK (100 nM) can be used a positive control compound. After this time the supernatant from each well is concentrated 20-fold (Centricon Concentrators; Millipore Corp., Bedford, Mass.). Equivalent volumes of media are then loaded onto 12% sodium dodicyl sulfate polyacrylamide gels, where the secreted proteins are separated according to their molecular weights by standard SDS-polyacrylamide gel electrophoresis protocols and transferred onto nitrocellulose paper. The level of MMP-1, MMP-2, MMP-3 and MMP-9 is then determined by immunoblot analysis with rabbit polyclonal anti-MMP antibodies. Bands are visualized by the addition of anti-rabbit horseradish peroxidase-conjugated secondary antibodies (New England Biolabs, Inc.; Beverly, Mass.) and enhanced chemiluminescent reagents (Pierce Biotechnology, Inc., Rockford, Ill.) (Mietz et al., Invest. Ophthalmol. Vis. Sci. 44: 5182-5188, 2003; Webb et al., J. Ocular Pharmacol. Ther. 22: 310-316, 2006). BK agonists should stimulate the production of some or all of MMP-1, MMP-2, MMP-3 and MMP-9. […] However, BK agonists with lower potencies than the above limits, whether partial or full agonists, can still be considered useful ocular hypotensive agents and may be useful as such.
Enhancement of such MMP synthesis and release by h-CM in response to FR-190997 may explain the efficacious IOP-lowering observed with this BK agonist in the glaucomatous monkey eyes (see below).

[3] = system: h-NPE cells; assay: Prostaglandin production in h-NPE cells; assay type: cell-based, human; settings: 1-10 μM
Description: A functional assay to discover BK agonists may involve the measurement of prostaglandin E2 (PGE2) production (Wiernas et al. Brit. J. Pharmacol. 123: 1127-1137, 1998), for instance, in cells isolated from human or animal ocular or non-ocular tissues, or cells expressing recombinant (preferably human) BK receptors. Cells expressing BK receptors are seeded in 48-wells culture plates and allowed to reach confluence. After this time the cells are rinsed twice with 0.5 mL of phosphate buffered saline and incubated with the test agent made up in 0.5 mL Dulbeco's modified Eagle's medium (DMEM)/F-12 for 1 h at 37° C. […]
After this incubation, all tubes are placed in an ice-bath and 1 ml cold precipitating reagent supplied in the kit is added to the tubes, the content mixed and incubated for 25 min at 4° C. […] The supernatants of all tubes are decanted as specified in the kit instructions and the RIA samples analyzed on a gamma-counter. The levels of PGE2 generated by the test agent are then quantified in comparison with the PGE2-standard curve. Dose-response data for the test agent are constructed and the potency and intrinsic activity determined as described above for other assays. […]

CNC(=O)c1ccc(/C=C/C(=O)NCC(=O)N(C)c2ccc(Cl)c(COc3cccc4c(OCc5ccccn5)cc(C)nc34)c2Cl)cc1 [FR-190997]
outflow facility [1]: increased the outflow facility flow
MMP-1 activity [2]: 59 % above basal levels
MMP-2 activity [2]: not MMP-2 activity
MMP-3 activity [2]: 96 % above basal levels
production of prostaglandins [3]: 1.26 fold above basal
